Measured values as given in ChEMBL document CHEMBL6177936, “Stachydrine, a pyrrole alkaloid with promising therapeutic potential against metabolic syndrome and associated organ dysfunction” (RSC Med Chem, 2024).

What was measured:
[1] = Clearance in Wistar rat at 10 mg/kg, iv measured for 24 hrs by LC-MS/MS analysis; type: ADME, organism-based; conditions: in vivo
[2] = Half life in Wistar rat at 166.3 mg/kg, po; type: ADME, organism-based; conditions: in vivo
[3] = Apparent oral clearance in KYDS rat at 1 g/Kg, IG by LC-MS/MS analysis; type: ADME; conditions: in vivo, 1000 mg/kg
[4] = Half life in Sprague-Dawley rat at 15.28 mg/kg, po incubated for 24 hrs by LC-MS/MS analysis; type: ADME, organism-based; conditions: in vivo
[5] = Tmax in CSBS-PD induced Sprague-Dawley rat at 15.28 mg/kg, po incubated for 24 hrs by LC-MS/MS analysis; type: ADME, organism-based; conditions: in vivo
[6] = MRT (0 to infinity) in Sprague-Dawley rat at 9.86 mg/kg, po by UPLC-MS/MS analysis; type: ADME, organism-based; conditions: in vivo
[7] = Half life in KYDS rat at 1 g/Kg, IG by LC-MS/MS analysis; type: ADME; conditions: in vivo, po, 1000 mg/kg
[8] = AUC (0 to infinity) in Wistar rat at 10 mg/kg, iv measured for 24 hrs by LC-MS/MS analysis; type: ADME, organism-based; conditions: in vivo
[9] = AUC (0 to infinity) in Wistar rat at 166.3 mg/kg, po; type: ADME, organism-based; conditions: in vivo
[10] = MRT(infinity) in CSBS-PD induced Sprague-Dawley rat at 15.28 mg/kg, po incubated for 24 hrs by LC-MS/MS analysis; type: ADME, organism-based; conditions: in vivo
[11] = AUC (0 to infinity) in Sprague-Dawley rat at 9.86 mg/kg, po by UPLC-MS/MS analysis; type: ADME, organism-based; conditions: in vivo
[12] = Tmax in Sprague-Dawley rat at 9.86 mg/kg, po by UPLC-MS/MS analysis; type: ADME, organism-based; conditions: in vivo
[13] = Cmax in KYDS rat at 1 g/Kg, IG by LC-MS/MS analysis; type: ADME; conditions: in vivo, po, 1000 mg/kg
[14] = Tmax in Wistar rat at 166.3 mg/kg, po; type: ADME, organism-based; conditions: in vivo
[15] = AUC(0 to infinity) in KYDS rat at 1 g/Kg, IG by LC-MS/MS analysis; type: ADME; conditions: in vivo, po, 1000 mg/kg
[16] = Tmax in KYDS rat at 1 g/Kg, IG by LC-MS/MS analysis; type: ADME; conditions: in vivo, po, 1000 mg/kg
[17] = Cmax in CSBS-PD induced Sprague-Dawley rat at 15.28 mg/kg, po incubated for 24 hrs by LC-MS/MS analysis; type: ADME, organism-based; conditions: in vivo
[18] = Cmax in Sprague-Dawley rat at 9.86 mg/kg, po by UPLC-MS/MS analysis; type: ADME, organism-based; conditions: in vivo
[19] = Half life in Sprague-Dawley rat at 9.86 mg/kg, po by UPLC-MS/MS analysis; type: ADME, organism-based; conditions: in vivo
[20] = MRT (0 to infinity) in Wistar rat at 166.3 mg/kg, po; type: ADME, organism-based; conditions: in vivo
[21] = AUC(infinity) in CSBS-PD induced Sprague-Dawley rat at 15.28 mg/kg, po incubated for 24 hrs by LC-MS/MS analysis; type: ADME, organism-based; conditions: in vivo
[22] = Cmax in Wistar rat at 166.3 mg/kg, po; type: ADME, organism-based; conditions: in vivo
[23] = MRT (0 to infinity) in KYDS rat at 1 g/Kg, IG by LC-MS/MS analysis; type: ADME; conditions: in vivo, po, 1000 mg/kg
[24] = Half life in CSBS-PD induced Sprague-Dawley rat at 15.28 mg/kg, po incubated for 24 hrs by LC-MS/MS analysis; type: ADME, organism-based; conditions: in vivo
[25] = Cmax in Wistar rat at 10 mg/kg, iv measured for 24 hrs by LC-MS/MS analysis; type: ADME, organism-based; conditions: in vivo

In the case of C[N+]1(C)CCC[C@H]1C(=O)[O-], the clearance [1] is reported as 15.5 mL/min/kg, the half-life [2] is reported as 1.64 h and the CL/F [3] is reported as 1 mL/min/kg. The half-life [4] was 3.89 h, the Tmax [5] was 2.83 h and the MRT inf [6] was 4.44 h. It also gave a half-life [7] of 6.59 h, an AUC [8] of 12026.7 h/ng/mL and an AUC(0-inf) [9] of 2900 ng·h/mL. It also gave an MRT inf [10] of 9.97 h, an AUC(0-inf) [11] of 2800 ng·h/mL and a Tmax [12] of 1.5 h. The Cmax [13] was 135 ng/mL, the Tmax [14] was 0.75 h and the AUC [15] was 1279.31 µg/L/h. For the same molecule, the Tmax [16] was 1.08 h, the Cmax [17] was 14000 ng/mL and the Cmax [18] was 673 ng/mL. For the same molecule, the half-life [19] was 3.79 h, the MRT inf [20] was 1.67 h and the AUC [21] was 99240 ng·h/mL. The Cmax [22] was 1610 ng/mL, the MRT inf [23] was 9.21 h and the half-life [24] was 5.51 h. For the same molecule, the Cmax [25] was 6400 ng/mL.
